Entries after “also recorded” stand apart in the source; their conditions may differ. Where two headings read alike, the source gives them in different places.
How the values were obtained:
[1] = tested on: small intestinal polyps and colon tumors of Apc Min/+ mice; details: for intestinal tumor inhibition: high-dose (700 ppm)
Experimental: Male Apc^Min/+ (C57BL/6J) and female wild-type littermate mice were initially purchased from The Jackson Laboratory (Bar Harbor, Me.) as founders, and our own breeding colony was established in OUHSC rodent barrier facility and genotyped according to vendor's instructions. All mice were housed 3 per cage in ventilated cages under standardized conditions (21° C., 60% relative humidity, 12 h light/12 h dark cycle, 20 air changes/hr). All mice were allowed ad libitum access to the respective diets and automated tap water purified by reverse osmosis.
All diet ingredients for the semi-purified diets were purchased from Bioserve (Frenchtown, N.J.) and stored at 4° C. before diet preparation. Diets were based on the modified American Institute of Nutrition (AIN)-76A diet. […] Both control and experimental diets were prepared weekly and stored in a cold room. Agent content in the experimental diets was determined periodically in multiple samples taken from the top, middle, and bottom portions of individual diet preparations to verify uniform distribution.
Genotyped Male and female Apc^Min/+ mice were used in the efficacy study. Five week old mice were distributed so that average body weights in each group were equal (10/9 Apc^Min/+ mice in each group) and were fed with AIN-76A diet for one week. […] Body weight, food, and fluid consumption were monitored weekly for signs of weight loss or lethargy that might indicate intestinal obstruction or anemia. Mice were routinely checked for any abnormalities. After 12 weeks, all mice were euthanized by CO2 asphyxiation, blood was collected immediately by heart puncture, and serum was separated by centrifugation and stored at −80° C. until further analysis. […] After necropsy, the entire intestinal tract was harvested, flushed with 0.9% NaCl and opened longitudinally from the esophagus to the distal rectum. The tissue was flattened on filter paper to expose the tumors and briefly frozen on dry ice to aid visual scoring of tumors. The number, location, and size of visible tumors in the entire intestine were determined under a dissection microscope (×5). All tumors were scored and subdivided by location (duodenal, jejunal and ileum and colon) and size (>2 mm, 1-2 or <1 mm in diameter). This procedure was completed by two individuals who were blinded to the experimental group and the genetic status of the mice. Colonic and other small intestinal tumors that required further histopathologic evaluation to identify adenoma, adenocarcinoma, and enlarged lymph nodes were fixed in 10% neutral-buffered formalin, embedded in paraffin blocks, and processed by routine H&E staining.
All results are expressed as mean±SE and were analyzed by Student's t test. Differences were considered significant at the P<0.05 level.

[2] = tested on: inflammatory cytokines and receptors; details: 800 ppm in diet, AOM-induced rat colon tumors
Experimental: Colonic tumors (CTs) were induced by colon specific carcinogen Azoxymethane (15 mg/kg by wt, once weekly for 2 weeks) in F344 rats at 8 weeks' age. […] Rats were killed 36 weeks after second AOM and analyzed for inflammatory cytokines and receptors and compared with control diet fed rat colonic tumors.

[3] = for Major Organ Toxicity / Ulceration (Grade) Colon / Ulceration (Grade) Small Intestine / Ulceration (Grade) Stomach / Liver enzymes ALKP / Liver enzymes ALT / Liver enzymes AST / Liver enzymes LDH: male C57 mice; for Liver enzymes ALKP / Liver enzymes ALT / Liver enzymes AST / Liver enzymes LDH: Mean ± SEM
Experimental: Body weights and symptoms of toxicity were recorded twice weekly for 6 weeks. […] All organs were examined grossly for any abnormalities upon necropsy. Livers, kidney, stomach, intestinal tract, and blood were obtained from the animals and analyzed for Liver enzyme profile, GI ulceration, and levels of test agents.
All animals found dead will be necropsied to confirm that the most likely cause of death was due to intestinal ulcerations.

[4] = stored in food cups for seven days
Experimental: Then aliquots of samples taken from the top, middle and bottom portions of the diets were analyzed for agents homogeneity of the experimental diets. […] Based on this information, frequency of preparation of experimental diets was once a week, and food cups were changed 3 times a week.

[5] = target: T1, 5-LOX (Rattus norvegicus, UniProt P12527); details: two weeks, male F344 rats
Experimental: (§1) Male F344 rats at 8 weeks of age treated with AOM (15 mg/Kg BW) and exposed to 2% DSS for three days. […] Further, the inflammation was scored by following below criteria: […]

[6] = tested on: COX-1/2; details: two weeks, male F344 rats
Experimental: as §1

[7] = target: T2, mPGES-1 (Rattus norvegicus, UniProt Q9JHF3); details: two weeks, male F344 rats
Experimental: as §1

[8] = target: T1, 5-LOX; details: ex vivo colon tumor homogenate
Experimental: (§2) Briefly, colonic tubular adenocarcinomas (ACs) were homogenized in 100 mM Tris-HCl buffer. […] Reaction mixture incubated for 20 min and ^14C-PGE2, 5-^14C-HETE and other 14-C metabolites were extracted and analyzed by Radio-HPLC according to the previously published work.

[9] = tested on: COX-1/2; details: ex vivo colon tumor homogenate
Experimental: as §2

[10] = target: T2, mPGES-1; details: ex vivo colon tumor homogenate
Experimental: as §2

[11] = tested on: colonic aberrant crypt foci (ACF); details: male F344 rats
Experimental: Male F344 rats at 8 weeks of age treated with AOM (15 mg/Kg BW) and exposed to 2% DSS for three days. […] Further, the inflammation was scored by following below criteria:
ACF form before colorectal polyps and are an indicator of the potential for cancer.

[12] = 350 and 700 ppm, female Apc Min/+ mice
[13] = 350 ppm in diet, female Apc Min/+ mice
[14] = 350 ppm in diet, male Apc Min/+ mice
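Throughout, for Major Organ Toxicity: gross examination of all organs at necropsy, with liver enzyme profile and GI ulceration assessed in collected tissues and blood.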
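Throughout, for Ulceration (Grade) Colon: gross examination of all organs at necropsy, with liver enzyme profile and GI ulceration assessed in collected tissues and blood.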
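Throughout, for Ulceration (Grade) Small Intestine: gross examination of all organs at necropsy, with liver enzyme profile and GI ulceration assessed in collected tissues and blood.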
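Throughout, for Ulceration (Grade) Stomach: gross examination of all organs at necropsy, with liver enzyme profile and GI ulceration assessed in collected tissues and blood.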

T2 sequence (Q9JHF3 whole entry): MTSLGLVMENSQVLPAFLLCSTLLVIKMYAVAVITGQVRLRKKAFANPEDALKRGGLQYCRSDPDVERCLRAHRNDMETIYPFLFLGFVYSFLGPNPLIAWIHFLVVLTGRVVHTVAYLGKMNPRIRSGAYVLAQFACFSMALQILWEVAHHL
T1 sequence (P12527 whole entry): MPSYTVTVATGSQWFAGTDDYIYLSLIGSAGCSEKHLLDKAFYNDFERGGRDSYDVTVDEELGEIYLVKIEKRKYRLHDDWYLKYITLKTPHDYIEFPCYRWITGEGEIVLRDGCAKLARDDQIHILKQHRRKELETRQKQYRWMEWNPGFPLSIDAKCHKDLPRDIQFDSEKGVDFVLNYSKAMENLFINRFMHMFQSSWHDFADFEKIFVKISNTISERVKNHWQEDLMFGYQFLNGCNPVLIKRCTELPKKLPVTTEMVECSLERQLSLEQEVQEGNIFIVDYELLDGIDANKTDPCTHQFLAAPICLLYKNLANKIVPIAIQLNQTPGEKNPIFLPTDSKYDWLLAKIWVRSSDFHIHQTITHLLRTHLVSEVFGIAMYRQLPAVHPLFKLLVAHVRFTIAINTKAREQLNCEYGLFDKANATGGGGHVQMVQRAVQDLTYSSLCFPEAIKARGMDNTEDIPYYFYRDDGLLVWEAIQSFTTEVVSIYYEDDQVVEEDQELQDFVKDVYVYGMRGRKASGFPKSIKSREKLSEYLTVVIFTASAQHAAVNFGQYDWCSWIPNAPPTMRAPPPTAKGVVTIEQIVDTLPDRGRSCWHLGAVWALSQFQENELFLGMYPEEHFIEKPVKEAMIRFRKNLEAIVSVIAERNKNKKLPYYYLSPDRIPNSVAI

Q: What does the source list for `CC1(C)Cc2c(-c3ccccc3)c(-c3ccc(Cl)cc3)c(CC(=O)NCC(=O)O)n2C1` [LFA-9, licofelone-glycine]?
A: colonic tumors per mouse [1, 12]: 0.1 tumors per mouse; reduction in the colonic tumors [1, 12]: 90%; colon tumor inhibition [1, 13]: 90%; fewer polyps with sizes greater than 2 mm [1, 13]: 81.6%; colon tumor inhibition [1, 14]: 60%; fewer polyps with sizes greater than 2 mm [1, 14]: 76.8%; total intestinal tumors (polyps), means±SEM [1, 14]: 31.6±5.99; suppression of polyps of greater than 2 mm size ([1]; 700 ppm in diet, both genders, Apc Min/+ mice): more than 81%; inhibition of colon tumors ([1]; 700 ppm in diet, both male and female Apc Min/+ mice): 91%; total intestinal tumors (polyps), means±SEM ([1]; 700 ppm in diet, female Apc Min/+ mice): 15.5±1.79; total intestinal tumors (polyps), means±SEM ([1]; 700 ppm in diet, male Apc Min/+ mice): 24.3±3.7; body weights of Apc Min/+ mice versus control diet ([1]; LFA-9 in diet (350, 700 ppm)): higher weight gains; intestinal tumor inhibition ([1]; female Apc Min/+ mice): 73.8%; intestinal tumor inhibition ([1]; male Apc Min/+ mice): approximately 56%; gross changes attributable to toxicity in liver, kidneys or lungs; body weight gain ([1]; wild-type mice): did not produce any gross changes attributable to toxicity; inflammatory cytokines and their receptors (PCR array) in colon tumors versus control [2]: significantly decreased; Major Organ Toxicity ([3]; 100 ppm in diet, 6 weeks): None; Ulceration (Grade) Colon ([3]; 100 ppm in diet, 6 weeks): Grade 0; Ulceration (Grade) Small Intestine ([3]; 100 ppm in diet, 6 weeks): Grade 0; Ulceration (Grade) Stomach ([3]; 100 ppm in diet, 6 weeks): Grade 0; Liver enzymes ALKP ([3]; 100 ppm in diet, 6 weeks): 178 ± 32 units/L; Liver enzymes ALT ([3]; 100 ppm in diet, 6 weeks): 82 ± 15 units/L; Liver enzymes AST ([3]; 100 ppm in diet, 6 weeks): 75 ± 8.5 units/L; Liver enzymes LDH ([3]; 100 ppm in diet, 6 weeks): 408 ± 28 units/L; Major Organ Toxicity ([3]; 200 ppm in diet, 6 weeks): None; Ulceration (Grade) Colon ([3]; 200 ppm in diet, 6 weeks): Grade 0; Ulceration (Grade) Small Intestine ([3]; 200 ppm in diet, 6 weeks): Grade 0; Ulceration (Grade) Stomach ([3]; 200 ppm in diet, 6 weeks): Grade 0; Liver enzymes ALKP ([3]; 200 ppm in diet, 6 weeks): 184 ± 30 units/L; Liver enzymes ALT ([3]; 200 ppm in diet, 6 weeks): 98 ± 13 units/L; Liver enzymes AST ([3]; 200 ppm in diet, 6 weeks): 83 ± 10 units/L; Liver enzymes LDH ([3]; 200 ppm in diet, 6 weeks): 394 ± 19 units/L; Major Organ Toxicity ([3]; 400 ppm in diet, 6 weeks): None; Ulceration (Grade) Colon ([3]; 400 ppm in diet, 6 weeks): Grade 0; Ulceration (Grade) Small Intestine ([3]; 400 ppm in diet, 6 weeks): Grade 0; Ulceration (Grade) Stomach ([3]; 400 ppm in diet, 6 weeks): Grade 0; Liver enzymes ALKP ([3]; 400 ppm in diet, 6 weeks): 187 ± 38 units/L; Liver enzymes ALT ([3]; 400 ppm in diet, 6 weeks): 93 ± 15 units/L; Liver enzymes AST ([3]; 400 ppm in diet, 6 weeks): 68 ± 7.5 units/L; Liver enzymes LDH ([3]; 400 ppm in diet, 6 weeks): 379 ± 29 units/L; Major Organ Toxicity ([3]; 800 ppm in diet, 6 weeks): None; Ulceration (Grade) Colon ([3]; 800 ppm in diet, 6 weeks): Grade 0; Ulceration (Grade) Small Intestine ([3]; 800 ppm in diet, 6 weeks): Grade 0; Ulceration (Grade) Stomach ([3]; 800 ppm in diet, 6 weeks): Grade 0; Liver enzymes ALKP ([3]; 800 ppm in diet, 6 weeks): 181 ± 27 units/L; Liver enzymes ALT ([3]; 800 ppm in diet, 6 weeks): 104 ± 13 units/L; Liver enzymes AST ([3]; 800 ppm in diet, 6 weeks): 82 ± 11 units/L; Liver enzymes LDH ([3]; 800 ppm in diet, 6 weeks): 422 ± 43 units/L; body weight loss or gross histological symptoms of toxicity ([3]; 800 ppm in diet, C57BL/6 mice): do not induce any body weight loss or gross histological symptoms of toxicity; Major Organ Toxicity ([3]; 1,600 ppm in diet, 6 weeks): Liver; Ulceration (Grade) Colon ([3]; 1,600 ppm in diet, 6 weeks): Grade 1; Ulceration (Grade) Small Intestine ([3]; 1,600 ppm in diet, 6 weeks): Grade 0; Ulceration (Grade) Stomach ([3]; 1,600 ppm in diet, 6 weeks): Grade 1; Liver enzymes ALKP ([3]; 1,600 ppm in diet, 6 weeks): 288 ± 24 units/L; Liver enzymes ALT ([3]; 1,600 ppm in diet, 6 weeks): 158 ± 18 units/L; Liver enzymes AST ([3]; 1,600 ppm in diet, 6 weeks): 132 ± 17 units/L; Liver enzymes LDH ([3]; 1,600 ppm in diet, 6 weeks): 589 ± 42 units/L; animals died at the end of six-week exposure ([3]; 1,600 ppm in diet, mice): 3 animals; colonic ulceration at microscopic level ([3]; 1,600 ppm in diet, mice): Grade 1 to 2; liver toxicity by gross pathology ([3]; 1,600 ppm in diet, mice): modest liver toxicity; stomach ulceration at microscopic level ([3]; 1,600 ppm in diet, mice): Grades 2 to 3; body weight loss as compared to control diet fed mice body weight gain ([3]; 1,600 ppm in diet, six weeks, mice): ~30%; ulceration ([3]; doses up to 800 ppm in diet): no ulceration; toxicity and body weight gain ([3]; up to 800 ppm in diet, 6 weeks): does not induce any toxicity; also recorded: did not exhibit toxicity; stability in diet [4]: > 96%; AOM-DSS-Induced 5-LOX (colonic mucosa) ([5]; 100 ppm in diet): 14.5%; AOM-DSS-Induced 5-LOX (colonic mucosa) ([5]; 200 ppm in diet): 22.6%; AOM-DSS-Induced 5-LOX (colonic mucosa) ([5]; 400 ppm in diet): 63.7%; AOM-DSS-Induced 5-LOX (colonic mucosa) ([5]; 600 ppm in diet): 74.7%; AOM-DSS-Induced 5-LOX (colonic mucosa) ([5]; 800 ppm in diet): 88.3%; AOM-DSS-Induced COX-1/2 (colonic mucosa) ([6]; 100 ppm in diet): 3.8%; AOM-DSS-Induced COX-1/2 (colonic mucosa) ([6]; 200 ppm in diet): 8.9%; AOM-DSS-Induced COX-1/2 (colonic mucosa) ([6]; 400 ppm in diet): 15.7%; AOM-DSS-Induced COX-1/2 (colonic mucosa) ([6]; 600 ppm in diet): 31.3%; AOM-DSS-Induced COX-1/2 (colonic mucosa) ([6]; 800 ppm in diet): 42.6%; AOM-DSS-Induced mPGES-1 (colonic mucosa) ([7]; 100 ppm in diet): 22.6%^; AOM-DSS-Induced mPGES-1 (colonic mucosa) ([7]; 200 ppm in diet): 33.7%^; AOM-DSS-Induced mPGES-1 (colonic mucosa) ([7]; 400 ppm in diet): 58%; AOM-DSS-Induced mPGES-1 (colonic mucosa) ([7]; 600 ppm in diet): 77%; AOM-DSS-Induced mPGES-1 (colonic mucosa) ([7]; 800 ppm in diet): 83%; % of Inhibition from control, 5LOX (5-14C-HETE from 14C-AA) ([8]; 2.5 μM): 27%; % of Inhibition from control, 5LOX (5-14C-HETE from 14C-AA) ([8]; 5.0 μM): 49%; % of Inhibition from control, 5LOX (5-14C-HETE from 14C-AA) ([8]; 7.5 μM): 68%; % of Inhibition from control, 5LOX (5-14C-HETE from 14C-AA) ([8]; 10 μM): 89%; % of Inhibition from control, 5LOX (5-14C-HETE from 14C-AA) ([8]; 20 μM): 97%; % of Inhibition from control, COX-1/2 (14C-PGs and TXs from 14C-AA) ([9]; 2.5 μM): 4%; % of Inhibition from control, COX-1/2 (14C-PGs and TXs from 14C-AA) ([9]; 5.0 μM): 9%; % of Inhibition from control, COX-1/2 (14C-PGs and TXs from 14C-AA) ([9]; 10 μM): 31%; % of Inhibition from control, COX-1/2 (14C-PGs and TXs from 14C-AA) ([9]; 20 μM): 58%; % of Inhibition from control, mPGES-1 (14C-PGE2 from 14C-PGH2) ([10]; 2.5 μM): 18%; % of Inhibition from control, mPGES-1 (14C-PGE2 from 14C-PGH2) ([10]; 5.0 μM): 32%; % of Inhibition from control, mPGES-1 (14C-PGE2 from 14C-PGH2) ([10]; 7.5 μM): 57%; % of Inhibition from control, mPGES-1 (14C-PGE2 from 14C-PGH2) ([10]; 10 μM): 78%; % of Inhibition from control, mPGES-1 (14C-PGE2 from 14C-PGH2) ([10]; 20 μM): 83%; 4 or >multi-crypt AC/colon (Mean ± SEM) ([11]; 200 ppm in diet): 23.5 ± 2.1; % Inhibition (4 or >multi-crypt AC/colon) ([11]; 200 ppm in diet): 30%; % Inhibition (total ACF/colon) ([11]; 200 ppm in diet): 29.5%; Total ACF/Colon (Mean ± SEM) ([11]; 200 ppm in diet): 110 ± 6.1; 4 or >multi-crypt AC/colon (Mean ± SEM) ([11]; 400 ppm in diet): 18.3 ± 2.0; % Inhibition (4 or >multi-crypt AC/colon) ([11]; 400 ppm in diet): 45.4%; % Inhibition (total ACF/colon) ([11]; 400 ppm in diet): 44.2%; Total ACF/Colon (Mean ± SEM) ([11]; 400 ppm in diet): 84 ± 5.3; 4 or >multi-crypt AC/colon (Mean ± SEM) ([11]; 600 ppm in diet): 13.5 ± 1.7; % Inhibition (4 or >multi-crypt AC/colon) ([11]; 600 ppm in diet): 61.2%; % Inhibition (total ACF/colon) ([11]; 600 ppm in diet): 60.5%; Total ACF/Colon (Mean ± SEM) ([11]; 600 ppm in diet): 62 ± 4.8
